From article PMC9545474, “Anticancer Water‐Soluble Organoruthenium Complexes: Synthesis and Preclinical Evaluation” (Chembiochem, 2022)

Assays:
A2780cisR cells = experiment: Cell viability with N-acetylcysteine (MTT), A2780cisR; type: cell-based, human; settings: NAC 5 mM 30 min before complexes at IC50
Experimental: Cell viability with N ‐acetylcysteine: Cells were seeded in 96‐well plates at a concentration of 7.5×10^3 cells per well and the plates were incubated for 24 h at 37 °C and a 5 % CO2 humidified atmosphere prior to drug exposure. Complexes were dissolved in either DMSO or PBS to provide stock solutions which were further diluted with media to provide a range of final concentrations. Solution of N‐acetylcysteine (NAC) in media was also prepared. […] Cells were incubated for 24 h at 37 °C and a 5 % CO2 humidified atmosphere. 3‐(4,5‐dimethylthiazol‐2‐yl)‐2,5‐diphenyltetrazolium bromide (MTT) (20 μL, 2.5 mg/mL) was added to each well and plates were incubated for 2 h. All solutions were then removed and 100 μL of DMSO was added to each well in order to dissolve the purple formazan crystals. A Thermo Scientific Multiskan EX microplate photometer was used to measure the absorbance in each well at 570 nm. Cell survival was determined as the absorbance of treated cells divided by the absorbance of controls and expressed as a percentage.

[1] = system: A2780 ovarian cancer cells; experiment: 24-hour MTT chemosensitivity assay with 72-hour recovery, A2780; type: cell-based, human; settings: for IC50: 24 h exposure, 72 h recovery, MTT, read-out: IC50 values ±SD, A2780; for Selectivity index (SI), A2780: mean IC50 PNT2 / mean IC50 A2780
Experimental: Chemosensitivity studies were undertaken using a 24‐hour MTT assay, with a 72‐hour recovery period. The IC50 values were determined against ovarian A2780 (cisplatin‐sensitive) and A2780cisR (cisplatin‐resistant) cancer cell lines, non‐small‐cell lung H460 cancer cell line, and normal prostate PNT2 cell line, exposed to each of compounds 4–8, cisplatin or the phosphine ligands (Table 1 and S4, Figures S29–S31). […] This is unusual but can be related to solubility issues not visible for the naked eye and thus hindering its activity in cells. […] When tested on their own, the phosphine ligands are not active below 100 μM for all four cell lines. […] This therefore prevents comparison with the well‐known RAPTA family, and more especially with RAPTA−C which bears a PTA ligand and a p‐cym ligand, making this complex relatively similar in terms of geometry with complex 4.[21] […] This confirms the interest of the sulfur coordinating atom in terms of cytotoxicity for organoruthenium complexes.[23]
Chemosensitivity assay: In vitro chemosensitivity tests were performed against A2780, A2780cisR, PNT2 and H460 cells. Cells were routinely maintained as monolayer cultures in RPMI 1640 medium supplemented with 10 % foetal calf serum, penicillin (100 I.U./mL) and streptomycin (100 μg/mL), sodium pyruvate (1 mM) and L‐glutamine (2 mM). For chemosensitivity studies, cells were seeded in 96‐well plates at a concentration of 7.5×10^3 cells per well and the plates were incubated for 24 h at 37 °C and a 5 % CO2 humidified atmosphere prior to drug exposure.
Complexes were dissolved in either DMSO (complexes 4, 5, and 8) or PBS (complexes 6 and 7) to provide stock solutions which were further diluted with media to provide a range of final concentrations. Drug‐media solutions were added to cells (the final concentration of DMSO was less than 1 % (v/v) in all cases) and incubated for 24 h at 37 °C and a 5 % CO2 humidified atmosphere. The drug‐media solution was removed from the wells and the cells were washed with PBS (100 μL, twice) and 200 μL of complete fresh media were added to each well. The plates were further incubated for 72 h at 37 °C and a 5 % CO2 humidified atmosphere to allow for a period of recovery. 3‐(4,5‐dimethylthiazol‐2‐yl)‐2,5‐diphenyltetrazolium bromide (MTT) (40 μL, 2.5 mg/mL) was added to each well and plates were incubated for 2 h. All solutions were then removed and 100 μL of DMSO was added to each well in order to dissolve the purple formazan crystals. A Thermo Scientific Multiskan EX microplate photometer was used to measure the absorbance in each well at 570 nm. Cell survival was determined as the absorbance of treated cells divided by the absorbance of controls and expressed as a percentage. The IC50 values were determined from plots of % survival against drug concentration. Each experiment was repeated in triplicates of triplicates and a mean value was obtained and stated as IC50 (μM) ± SD. Untreated cells were used as a negative control, and cells treated with cisplatin were used as a positive control.

[2] = system: A2780 subcutaneous tumour xenograft; experiment: Efficacy in A2780 subcutaneous tumour xenograft model; type: in vivo, Female Balb/c immunodeficient nude mice; settings: 6 at 50 mg/kg, 8 at 15 mg/kg, i.p.; for Maximum % weight loss / Median time to RTV2: days 0–4; for Growth delay: days 0–4, versus untreated
Experimental: Compounds: All compounds were provided in powdered form and stored in the −20 °C freezer. They were formulated just before use. […] The drugs were then administered within 10 minutes of initial dilution.
Animals: Female Balb/c immunodeficient nude mice aged 6–12 weeks were used (Envigo, Blackthorn, UK). Mice were kept in cages housed in isolation cabinets in an air‐conditioned room with regular alternating cycles of light and darkness. They received Teklad 2018 diet (Envigo, Blackthorn, UK) and water ad libitum. All animal procedures were carried out under a project licence issued by the UK Home Office and UK National Cancer Research Institute Guidelines for the Welfare of Animals were followed throughout.
S.c. xenograft tumours: A2780/WT and A2780/cis tumours were excised from a donor animal, placed in sterile physiological saline containing antibiotics and cut into small fragments of approximately 5 mm^3. Under brief general inhalation anaesthesia, fragments were implanted in the flank of each mouse using a trocar. Once the tumours could accurately be measured by callipers, the mice were allocated into groups (control or treated) by restricted randomisation to keep group mean tumour size variation to a minimum, with 3 animals set up per group.
Evaluation of efficacy in s.c. xenograft models: The compounds were prepared fresh on the days of treatment as described above and administered i. p. to mice on days 0–4 in a volume of 0.1 mL per 10 g of body weight. […] The negative control group was untreated.
The effects of therapy were assessed by frequent monitoring growth of the tumours and body weight. Two‐dimensional calliper measurements of the tumours were taken, and volumes calculated using the formula (a^2×b)/2, where a is the smaller and b the larger diameter of the tumour. Tumour volume was then normalised to the respective volume on day 0, and semi‐log plots of relative tumour volume (RTV) versus time were made. Mann‐Whitney U tests were performed to determine the statistical significance of any differences in growth rate (based on tumour volume doubling time, RTV2) between control and treated groups.

Row | Compound | Cell viability after pre-treatment with NAC (A2780cisR cells) | IC50 [1] [nM] | Selectivity index (SI), A2780 [1] | Toxicity in xenograft study [2] | Maximum % weight loss [2] [%] | Median time to RTV2 [2] [days] | Growth delay [2] [days]
1 | Cc1ccc(C(C)C)cc1.N#CC1=C(C#N)[S][Ru-]([P+](c2ccccc2)(c2ccccc2)c2ccccc2)[S]1 [Complex 8, (η^6‐p‐cymene)(PPh3)Ru(Mnt)] | increase of the cell viability | 960 ± 40 | 2.50 | No toxicity was observed | 0 | 1.5 | 0.1
2 | (η^6‐p‐cymene)(TPPTS)Ru(Mnt) [Complex 6] | increase of the cell viability | 600 ± 70 | 2.67 | – | 0 | 2.0 | 0.6
